Values of other authors as cited in patent US11013844B2, “Treatment device for plasma virus inactivation” (City of Hope, priority 2014, dated 2021).

Conditions: within 6 days

- methylene blue drained through urine: 74%
- part drained through urine in the original form (the other is white methylene blue): 22%
SMILES: CN(C)c1ccc2nc3ccc(N(C)C)cc3[s+]c2c1.[Cl-] [methylene blue, 3,7-bis(dimethylamino)phenothiazin-5-ium chloride]
